Key:
[1] = Stability in Simulated Gastric Fluid (SGF); format: in vitro ADME; conditions: SGF pH 1.6 with pepsin, 1 μM, 37° C.
Procedure: Stability of acylated active agents in Simulated Gastric Fluid (SGF). This assay was used to assess the stability of an acylated active agent in a stomach.
Medium was prepared by dissolving 2 g of sodium chloride in 0.6 L in ultrapure water (MilliQ®, Millipore Sigma, Darmstadt, Germany). The pH was adjusted to 1.6 with 1N hydrochloric acid, and the volume was then adjusted to 1 L with purified water.
60 mg FaSSIF powder (Biorelevant™, London, UK) were dissolved in 500 mL buffer (above). Pepsin was added (0.1 mg/mL) (Millipore Sigma, Darmstadt, Germany), and the solution was stirred. The resulting SGF media were used fresh for each experiment.
(§1) Test compounds were dissolved in DMSO stock to 1 mM. An aliquot of the DMSO stock solution was removed and diluted in the SGF Media in 15 mL falcon tubes to generate a total compound concentration of 1 μM. A 1 mL aliquot was immediately removed and diluted once with 1 volume of acetonitrile for T0 timepoint. The mixture was sealed and mixed at 37° C. in an incubator. Aliquots (1 mL) were removed at regular intervals and immediately quenched by the addition of 1 volume of acetonitrile. The resulting samples were analyzed by LC/MS to determine degradation rates

[2] = Stability in Simulated Intestinal Fluid (SIF); format: in vitro ADME; conditions: for Assay 2 (SIF) (% @ Remaining 4 hours): SIF pH 6.7 with pancreatin, 1 μM, 37° C.; for selective delivery to the upper intestine: conclusion drawn from Table 1 (SGF and SIF stability)
Procedure: SIF Stability of acylated active agents in Simulated Intestinal Fluid (SIF). This assay was used to assess the stability of an acylated active agent in a small intestine.
Phosphate buffer was prepared by dissolving 0.42 g of sodium hydroxide pellets and 3.95 g of monobasic sodium phosphate monohydrate and 6.19 g of sodium chloride in ultrapure water (MilliQ®, Millipore Sigma, Darmstadt, Germany). The pH was adjusted to 6.7 using aq. HCl and aq. NaOH, as necessary, and the solution was diluted with ultrapure water to produce 1 L of the pH 6.7 buffer.
112 mg FaSSIF powder (Biorelevant™, London, UK) was dissolved in 50 mL of the pH 6.7 buffer. 2 to 3 mL of the resulting solution were then added to 500 mg pancreatin (Millipore Sigma, Darmstadt, Germany). The resulting mixture was agitated by finger tapping the vessel containing the mixture until milky suspension formed. At this time, the remainder of the 50 mL FaSSiF/pH 6.7 buffer solution was added. The resulting suspension was flipped upside down 10 times to produce SIF, which was used fresh.
as §1, with “SIF media” for “SGF Media”, “produce” for “generate”, “mixture with a tested” for “total”, “agitated” for “mixed”, “rates.” for “rates”

Structure (SMILES) | Assay 1 (SGF) (% Remaining @ 1 hours) [1] | Assay 2 (SIF) (% @ Remaining 4 hours) [2] | selective delivery to the upper intestine [2]
CCC(=O)OCC[C@@H](C)OC(=O)Oc1ccc(/C=C/c2cc(OC(=O)O[C@H](C)CCOC(=O)CC)cc(OC(=O)O[C@H](C)CCOC(=O)CC)c2)cc1 [Compound 27, [(3R)-3-[4-[(E)-2-[3,5-bis[[(1R)-1-methyl-3-propanoyloxy-propoxy]carbonyloxy]phenyl]vinyl]phenoxy]carbonyloxybutyl] propanoate] | C (>75% of the tested compound remaining) | A (<25% of the tested compound remaining) | can be selectively delivered to the upper intestine
CCCC(=O)O[C@H](C)CCOC(=O)C[C@@H](C)OC(=O)CCC [Compound 23, (R)-3-(butyryloxy)butyl (R)-3-(butyryloxy)butanoate] | C (>75% of the tested compound remaining) | – | –
CCCC(=O)OCC[C@@H](C)OC(=O)Oc1ccc(/C=C/c2cc(OC(=O)O[C@H](C)CCOC(=O)CCC)cc(OC(=O)O[C@H](C)CCOC(=O)CCC)c2)cc1 [Compound 25, [(3R)-3-[4-[(E)-2-[3,5-bis[[(1R)-3-butanoyloxy-1-methyl-propoxy]carbonyloxy]phenyl]vinyl]phenoxy]carbonyloxybutyl] butanoate] | C (>75% of the tested compound remaining) | A (<25% of the tested compound remaining) | can be selectively delivered to the upper intestine
CC(=O)Oc1cc(OC(C)=O)c2c(=O)c(OC(C)=O)c(-c3ccc(OC(C)=O)c(OC(C)=O)c3)oc2c1 [Compound 4, [2-acetoxy-4-(3,5,7-triacetoxy-4-oxo-chromen-2-yl)phenyl] acetate] | C (>75% of the tested compound remaining) | A (<25% of the tested compound remaining) | can be selectively delivered to the upper intestine
CCCC(=O)Oc1cc(OC(=O)CCC)c2c(=O)c(OC(=O)CCC)c(-c3ccc(OC(=O)CCC)c(OC(=O)CCC)c3)oc2c1 [Compound 5, [2-butanoyloxy-4-[3,5,7-tri(butanoyloxy)-4-oxo-chromen-2-yl]phenyl] butanoate] | C (>75% of the tested compound remaining) | B (25-75% of the tested compound remaining) | can be selectively delivered to the upper intestine
CCC(=O)Oc1cc(OC(=O)CC)c2c(=O)c(OC(=O)CC)c(-c3cc(OC(=O)CC)c(OC(=O)CC)c(OC(=O)CC)c3)oc2c1 [Compound 13, [4-oxo-3,5-di(propanoyloxy)-2-[3,4,5-tri(propanoyloxy)phenyl]chromen-7-yl] propanoate] | C (>75% of the tested compound remaining) | A (<25% of the tested compound remaining) | can be selectively delivered to the upper intestine
CCC(=O)O[C@H](C)CCOC(=O)Oc1ccc(/C=C/c2cc(OC(=O)OCC[C@@H](C)OC(=O)CC)cc(OC(=O)OCC[C@@H](C)OC(=O)CC)c2)cc1 [Compound 28, (2R,2′R)-((((5-(E)-4-((((R)-3-(propionyloxy)butoxy)carbonyl)oxy)styryl)-1,3-phenylene)bis(oxy))bis(carbonyl))bis(oxy))bis(butane-4,2-diyl) dipropionate] | B (25-75% of the tested compound remaining) | A (<25% of the tested compound remaining) | –
CCC(=O)Oc1ccc2c(c1)oc(=O)c1cc(OC(=O)CC)c(OC(=O)CC)cc12 [Compound 18, [6-oxo-8,9-di(propanoyloxy)benzo[c]chromen-3-yl] propanoate] | C (>75% of the tested compound remaining) | A (<25% of the tested compound remaining) | can be selectively delivered to the upper intestine
CCC(=O)Oc1cc(O)c2c(=O)cc(-c3ccc(OC(=O)CC)c(OC(=O)CC)c3)oc2c1 [Compound 12, 4-(5-hydroxy-4-oxo-7-(propionyloxy)-4H-chromen-2-yl)-1,2-phenylene dipropionate] | C (>75% of the tested compound remaining) | A (<25% of the tested compound remaining) | can be selectively delivered to the upper intestine
CC(=O)Oc1ccc(-c2oc3cc(OC(C)=O)cc(OC(C)=O)c3c(=O)c2OC(C)=O)cc1 [Compound 8, [4-(3,5,7-triacetoxy-4-oxo-chromen-2-yl)phenyl] acetate] | C (>75% of the tested compound remaining) | – | –
CCCC(=O)Oc1ccc(C2CC(=O)c3c(OC(=O)CCC)cc(OC(=O)CCC)cc3O2)cc1 (stereo not drawn) [Compound 10, [4-[5,7-di(butanoyloxy)-4-oxo-chroman-2-yl]phenyl] butanoate] | B (25-75% of the tested compound remaining) | A (<25% of the tested compound remaining) | –
CCCC(=O)O[C@H](C)CCOC(=O)Oc1ccc(/C=C/c2cc(OC(=O)OCC[C@@H](C)OC(=O)CCC)cc(OC(=O)OCC[C@@H](C)OC(=O)CCC)c2)cc1 [Compound 26, [(1R)-3-[4-[(E)-2-[3,5-bis[[(3R)-3-butanoyloxybutoxy]carbonyloxy]phenyl]vinyl]phenoxy]carbonyloxy-1-methyl-propyl] butanoate] | C (>75% of the tested compound remaining) | B (25-75% of the tested compound remaining) | –
CC(=O)OCC[C@@H](C)OC(=O)Oc1ccc(/C=C/c2cc(OC(=O)O[C@H](C)CCOC(C)=O)cc(OC(=O)O[C@H](C)CCOC(C)=O)c2)cc1 [Compound 33, [(3R)-3-[4-[(E)-2-[3,5-bis[[(1R)-3-acetoxy-1-methyl-propoxy]carbonyloxy]phenyl]vinyl]phenoxy]carbonyloxybutyl] acetate] | C (>75% of the tested compound remaining) | A (<25% of the tested compound remaining) | can be selectively delivered to the upper intestine
CCC(=O)Oc1cc(OC(=O)CC)c2c(c1)O[C@H](c1cc(OC(=O)CC)c(OC(=O)CC)c(OC(=O)CC)c1)[C@H](OC(=O)c1cc(OC(=O)CC)c(OC(=O)CC)c(OC(=O)CC)c1)C2 [Compound 15, [(2R,3R)-5,7-di(propanoyloxy)-2-[3,4,5-tri(propanoyloxy)phenyl]chroman-3-yl] 3,4,5-tri(propanoyloxy)benzoate] | C (>75% of the tested compound remaining) | – | –
CC(=O)Oc1ccc(C2CC(=O)c3c(OC(C)=O)cc(OC(C)=O)cc3O2)cc1 (stereo not drawn) [Compound 9, [4-(5,7-diacetoxy-4-oxo-chroman-2-yl)phenyl] acetate] | C (>75% of the tested compound remaining) | A (<25% of the tested compound remaining) | can be selectively delivered to the upper intestine
CC(=O)O[C@H](C)CCOC(=O)Oc1ccc(/C=C/c2cc(OC(=O)OCC[C@@H](C)OC(C)=O)cc(OC(=O)OCC[C@@H](C)OC(C)=O)c2)cc1 [Compound 34, [(1R)-3-[4-[(E)-2-[3,5-bis[[(3R)-3-acetoxybutoxy]carbonyloxy]phenyl]vinyl]phenoxy]carbonyloxy-1-methyl-propyl] acetate] | C (>75% of the tested compound remaining) | A (<25% of the tested compound remaining) | can be selectively delivered to the upper intestine

Source: patent US20210085640A1, “ACYLATED CATECHIN POLYPHENOLS AND METHODS OF THEIR USE FOR THE TREATMENT OF CANCER” (Flagship Pioneering Innovations V, Inc., priority 2018, published 2021)
